Usually EC50 stands for the concentration at which the effect is half-maximal. Lower therefore signals an effect from little substance. By microsomal CLint is commonly meant the capacity of the preparation to metabolise the compound, expressed as a volume cleared per time. A higher microsomal CLint goes with rapid turnover. The term solubility denotes the dissolved amount per volume that the medium holds. A high value points to a readily soluble substance. The term Solubility denotes how much of the substance goes into solution per volume. A high value points to a readily soluble substance.

The record followed here is patent US8962658B2, “Fluoralkylcarbonyl-oxadiazoles” (Universite de Droit et de la Sante de Lille 2, priority 2011, dated 2015).

Data set [1] concerns M. tuberculosis H37Rv-GFP in Raw264.7 macrophages. The data set is described as follows: microbe, parasite or virus in culture. Type of data set: cell-based. To be noted: Mycobacterium tuberculosis.
Data set [2] can be described thus: in vitro. To be noted: CD-1, mouse, microsomes, pH 7.4.
The nature of data set [3]: physchem. To be noted: pH 7.4, aqueous buffer, kinetic from dmso stock.
The nature of data set [4]: Pharmacokinetic experiments (aqueous hydroxypropyl-β-cyclodextrin formulation). Type of data set: in vivo, CD1 female mice. The conditions noted are these: mice, single oral dose 20 mg/kg, vehicle aqueous 100 mM hydroxypropyl-β-cyclodextrin.
Description: Pharmacokinetic experiments (aqueous hydroxypropyl-β-cyclodextrin Formulation). Compounds solubilized in aqueous hydroxypropyl-β-cyclodextrin solution (100 mM) were administered in single dose (20 mg/kg) to CD1 female mice (25-30 g) (Charles River Laboratories). […] Mice were immediately sacrificed by cervical dislocation. Three mice were dosed per kinetics time point.
(§1) Plasma samples preparation. Plasma samples were thawed on ice. Aliquots of 50 μL were precipitated with 450 μL of ice cold acetonitrile containing internal standard (1 μM). The samples were vigorously mixed with a Vortex, centrifuged at 10000 rpm, at 4° C. for 10 min and the supernatants were transferred into Matrix tubes for LC-MS-MS analysis. Spiked standard solutions (10, 50, 100, 500, 1000, 5000, 10000 and 50000 nM) were prepared the same way.
For data set [5] the following is noted: pH 7.4, PBS.
A short description of data set [6]: Pharmacokinetic experiments (DMSO formulation). To be noted: mice, oral, dose 20 mg/kg, vehicle 100% DMSO. Format: in vivo, Swiss mice.
Description: Pharmacokinetic experiments (DMSO Formulation). Compounds were administered at 20 mg per kg body weight by oral route to Swiss mice (22-24 g) (WIV-ISP breeding). Three mice per time point were anesthetized with ketamine-xyalzine and bled them at 10 min, 20 min, 30 min, 1 h, 2 h, 3 h and 6 h after administration of a single dose of ligands. Blood was collected from the brachial region on lithium heparinated tubes in order to prevent coagulation.
as §1
Where [7] appears, read: RAW264.7, Table 1, […], mean of two experiments.

In brackets after ≈: the same amount, converted by molar mass.

`O=C(CCCC(F)(F)F)N1CCC(c2nc(-c3cccs3)no2)CC1` [Compound 44, 5,5,5-trifluoro-1-{4-[3-(thiophen-2-yl)-1,2,4-oxadiazol-5-yl]piperidin-1-yl}pentan-1-one] came in with an EC50 in data set [1] (RAW264.7) of 0.07 µM.
For the compound `O=C(CCCC(F)(F)F)N1CCC(c2nc(-c3ccccc3)no2)CC1` [Compound 45, 5,5,5-trifluoro-1-[4-(3-phenyl-1,2,4-oxadiazol-5-yl)piperidin-1-yl]pentan-1-one], the microsomal CLint at 1 μM in data set [2] worked out at 73 µL/min/mg. This compound showed a solubility at 24 h in data set [3] of 80 µg/mL (≈ 218 µM). Also, in data set [1] (RAW264.7), the concentration for a half-maximal effect (EC50) came out at 0.1 µM.
In the same order, the values of `O=C(CCCC(F)(F)F)N1CC[C@@H](c2nc(-c3cccs3)no2)C1` [Compound 43, 5,5,5-trifluoro-1-[(3R)-3-[3-(thiophen-2-yl)-1,2,4-oxadiazol-5-yl]pyrrolidin-1-yl]pentan-1-one] are 297 µL/min/mg, 237 µg/mL (≈ 659 µM) and 0.1 µM.
On to `O=C(CCC(F)(F)F)N1CCC(c2nc(-c3nccs3)no2)CC1` [Compound 5, 4,4,4-Trifluoro-1-[4-(3-thiazol-2-yl-1,2,4-oxadiazol-5-yl)-piperidin-1-yl]-butan-1-one], for which the microsomal CLint in data set [2] was 37 µL/min/mg. Moreover, the “AUC∞” value in data set [4] was 100500 ng·h/mL; in data set [6] it was 73500 ng·h/mL. Moreover, in data set [5], the Solubility was found to be 300 µg/mL (≈ 832 µM). Besides, the EC50 in data set [1] (RAW264.7) was ≤ 0.5 µM; in data set [1] (setting [7]), 0.5 µM.
With `O=C(CCC(F)(F)F)N1CC[C@@H](c2nc(-c3nccs3)no2)C1` [Compound 41, 4,4,4-trifluoro-1-[(3R)-3-[3-(1,3-thiazol-2-yl)-1,2,4-oxadiazol-5-yl]pyrrolidin-1-yl]butan-1-one], in data set [1] (RAW264.7), the EC50 was 6.3 µM.
Compound `O=C(CCC(F)(F)F)N1CCC(c2nc(-c3ccccc3)no2)CC1` [Compound 8, 4,4,4-Trifluoro-1-[4-(3-phenyl-1,2,4-oxadiazol-5-yl)-piperidin-1-yl]-butan-1-one] displayed a Solubility in data set [5] of 40 µg/mL (≈ 113 µM). In addition, the EC50 was ≤ 0.5 µM in data set [1] (RAW264.7) and 0.5 µM in data set [1] (setting [7]).
In data set [2], `CS(=O)(=O)c1ccc(-c2noc(C3CCN(C(=O)CCCC(F)(F)F)CC3)n2)cc1` [Compound 46, 5,5,5-trifluoro-1-{4-[3-(4-methanesulfonylphenyl)-1,2,4-oxadiazol-5-yl]piperidin-1-yl}pentan-1-one] had a microsomal CLint at 1 μM of 14 µL/min/mg. Further, in data set [3], the concentration in solution (solubility at 24 h) came to 80 µg/mL (≈ 180 µM). Further, the concentration giving a half-maximal response (EC50) in data set [1] (RAW264.7) was found to be 0.02 µM.
As for `COc1ccc2nc(-c3noc(C4CCN(C(=O)CCC(F)(F)F)CC4)n3)sc2c1` [Compound 7, 4,4,4-Trifluoro-1-{4-[3-(6-methoxy-benzothiazol-2-yl)-1,2,4-oxadiazol-5-yl]-piperidin-1-yl}-butan-1-one], the intrinsic clearance (microsomal CLint) in data set [2] came to 197 µL/min/mg. Also, the Solubility in data set [5] came to 6 µg/mL (≈ 13.6 µM). Besides, the 50% effective concentration (EC50) in data set [1] (setting [7]) was found to be 0.2 µM.
`O=C(CCC(F)(F)F)N1CCC(c2nc(-c3cccs3)no2)CC1` [Compound 3, 4-4-4-trifluoro-1-[4-(3-thiophen-2-yl-[1,2,4]oxadiazol-5-yl)-piperidin-1-yl]butan-1-one, reference compound]: the microsomal CLint in data set [2] was determined as 213 µL/min/mg. Besides, the Solubility in data set [5] came out at 150 µg/mL (≈ 417 µM). The concentration for a half-maximal effect (EC50) in data set [1] (RAW264.7) and in data set [1] (setting [7]) was 0.1 µM throughout.
`O=C(CCCC(F)(F)F)N1CCC(c2nc(-c3nccs3)no2)CC1` [Compound 42, 5,5,5-Trifluoro-1-[4-(3-thiazol-2-yl-1,2,4-oxadiazol-5-yl)-piperidin-1-yl]-pentan-1-one] yielded an intrinsic clearance (microsomal CLint) in data set [2] of 15 µL/min/mg. Besides, the “AUC∞” value in data set [4] turned out to be 98600 ng·h/mL. Further, in data set [5], the Solubility was determined as 410 µg/mL (≈ 1100 µM). This compound registered a concentration for a half-maximal effect (EC50) in data set [1] (RAW264.7) of 0.06 µM.
`O=C(CCC(F)(F)F)N1CCC(c2nc(C3CCCC3)no2)CC1` [Compound 32, 1-[4-(3-Cyclopentyl-1,2,4-oxadiazol-5-yl)-piperidin-1-yl]-4,4,4-trifluoro-butan-1-one]: the concentration for a half-maximal effect (EC50) in data set [1] (setting [7]) came to 0.8 µM.
`O=C(CCC(F)(F)F)N1CC[C@@H](c2nc(-c3cccs3)no2)C1` [Compound 2] came in with a microsomal CLint in data set [2] of 4 µL/min/mg. In data set [5], this compound yielded a Solubility of 80 µg/mL (≈ 232 µM). Also, in data set [1] (RAW264.7), the EC50 turned out to be 0.4 µM. Moreover, in data set [6], the “AUC∞” value came to 100 ng·h/mL.
